Data on four compounds can be found in ChEMBL document CHEMBL5465560, “Selectivity Literature for EUbOPEN Chemogenomic Library” (2024).

The target in test [1] is Phosphatidylinositol 4-phosphate 3-kinase C2 domain-containing subunit alpha (Homo sapiens) (UniProt O00443). Kind of test: Selectivity interaction (Adapta Assay) EUB0001632a PIK3C2A. As to conditions: at 10 µM.
The target of test [2] is T1, Mitogen-activated protein kinase kinase kinase 5 (Homo sapiens) (UniProt Q99683).
T1 sequence (whole entry): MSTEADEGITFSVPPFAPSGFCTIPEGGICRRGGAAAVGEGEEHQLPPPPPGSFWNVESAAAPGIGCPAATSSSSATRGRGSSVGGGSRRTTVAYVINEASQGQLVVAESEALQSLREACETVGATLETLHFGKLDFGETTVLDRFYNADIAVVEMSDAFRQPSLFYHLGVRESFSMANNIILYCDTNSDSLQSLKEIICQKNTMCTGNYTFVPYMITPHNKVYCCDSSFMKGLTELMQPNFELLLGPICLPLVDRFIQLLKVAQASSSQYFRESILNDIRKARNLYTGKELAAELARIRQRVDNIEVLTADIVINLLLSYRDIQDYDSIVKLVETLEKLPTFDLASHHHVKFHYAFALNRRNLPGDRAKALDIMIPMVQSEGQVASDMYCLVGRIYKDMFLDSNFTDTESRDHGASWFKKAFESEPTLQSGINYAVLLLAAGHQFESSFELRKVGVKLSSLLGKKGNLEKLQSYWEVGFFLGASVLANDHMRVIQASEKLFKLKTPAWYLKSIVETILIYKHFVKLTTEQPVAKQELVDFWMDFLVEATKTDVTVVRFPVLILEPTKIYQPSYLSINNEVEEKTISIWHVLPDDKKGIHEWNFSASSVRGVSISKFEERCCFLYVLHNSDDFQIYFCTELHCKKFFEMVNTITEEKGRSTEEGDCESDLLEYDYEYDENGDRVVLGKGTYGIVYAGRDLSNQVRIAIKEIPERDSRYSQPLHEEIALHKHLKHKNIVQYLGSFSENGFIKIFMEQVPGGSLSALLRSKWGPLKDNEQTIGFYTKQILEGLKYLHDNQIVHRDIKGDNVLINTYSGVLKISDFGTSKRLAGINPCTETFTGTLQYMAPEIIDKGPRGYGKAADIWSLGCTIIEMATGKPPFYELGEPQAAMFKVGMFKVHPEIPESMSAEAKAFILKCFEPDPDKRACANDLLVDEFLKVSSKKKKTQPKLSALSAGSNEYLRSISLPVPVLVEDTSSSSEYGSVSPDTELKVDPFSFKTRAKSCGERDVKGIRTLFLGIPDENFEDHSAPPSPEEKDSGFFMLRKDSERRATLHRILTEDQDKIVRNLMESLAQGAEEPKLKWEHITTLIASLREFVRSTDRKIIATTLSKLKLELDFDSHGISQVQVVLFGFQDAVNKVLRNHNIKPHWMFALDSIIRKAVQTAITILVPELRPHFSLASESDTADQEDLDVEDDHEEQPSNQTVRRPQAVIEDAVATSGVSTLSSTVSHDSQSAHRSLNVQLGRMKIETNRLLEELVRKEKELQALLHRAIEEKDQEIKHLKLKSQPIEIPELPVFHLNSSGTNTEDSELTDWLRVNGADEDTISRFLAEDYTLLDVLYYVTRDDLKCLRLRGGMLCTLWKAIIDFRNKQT
Kind of test: Selectivity interaction (Kinase panel (KiNativ target engagement assay in Jurkat cells)) EUB0001635a MAP3K5. It counts as cell-based. Particulars: Selectivity number of off-targets 0.0, Selectivity number of targets 233.0, Source Knowledge https://www.sciencedirect.com/science/article/pii/S2451945619300674?via%3Dihub, at 1 µM.

In test [3] the target is Ribosomal protein S6 kinase alpha-6 (Homo sapiens, UniProt Q9UK32). Kind of test: Selectivity interaction (KinomeScan (DiscoverX)) EUB0000695a RPS6KA6. As to conditions: at 100 nM.
Chain of Ribosomal protein S6 kinase alpha-6 (Q9UK32 whole entry): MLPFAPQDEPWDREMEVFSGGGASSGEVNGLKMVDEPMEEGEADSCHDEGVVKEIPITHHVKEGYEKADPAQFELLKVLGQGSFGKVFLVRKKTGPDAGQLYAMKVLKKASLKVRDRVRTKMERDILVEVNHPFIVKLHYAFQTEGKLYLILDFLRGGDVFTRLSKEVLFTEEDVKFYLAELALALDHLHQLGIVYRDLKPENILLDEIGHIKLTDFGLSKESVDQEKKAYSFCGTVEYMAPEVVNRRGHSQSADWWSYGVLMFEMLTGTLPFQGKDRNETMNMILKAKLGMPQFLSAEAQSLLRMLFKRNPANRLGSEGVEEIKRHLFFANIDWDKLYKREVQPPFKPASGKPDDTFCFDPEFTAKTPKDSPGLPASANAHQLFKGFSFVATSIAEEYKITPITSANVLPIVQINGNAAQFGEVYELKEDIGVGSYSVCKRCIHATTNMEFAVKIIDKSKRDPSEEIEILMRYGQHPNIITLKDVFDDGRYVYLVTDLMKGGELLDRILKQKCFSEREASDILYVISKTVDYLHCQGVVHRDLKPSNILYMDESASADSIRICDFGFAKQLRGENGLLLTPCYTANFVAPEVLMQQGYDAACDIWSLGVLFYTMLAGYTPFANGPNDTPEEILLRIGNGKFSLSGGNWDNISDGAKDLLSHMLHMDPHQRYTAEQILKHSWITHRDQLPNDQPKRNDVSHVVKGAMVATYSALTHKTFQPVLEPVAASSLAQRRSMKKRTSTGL
Test [4] addresses T2, Dual specificity tyrosine-phosphorylation-regulated kinase 2 (Homo sapiens) (UniProt Q92630).
T2 sequence (whole entry): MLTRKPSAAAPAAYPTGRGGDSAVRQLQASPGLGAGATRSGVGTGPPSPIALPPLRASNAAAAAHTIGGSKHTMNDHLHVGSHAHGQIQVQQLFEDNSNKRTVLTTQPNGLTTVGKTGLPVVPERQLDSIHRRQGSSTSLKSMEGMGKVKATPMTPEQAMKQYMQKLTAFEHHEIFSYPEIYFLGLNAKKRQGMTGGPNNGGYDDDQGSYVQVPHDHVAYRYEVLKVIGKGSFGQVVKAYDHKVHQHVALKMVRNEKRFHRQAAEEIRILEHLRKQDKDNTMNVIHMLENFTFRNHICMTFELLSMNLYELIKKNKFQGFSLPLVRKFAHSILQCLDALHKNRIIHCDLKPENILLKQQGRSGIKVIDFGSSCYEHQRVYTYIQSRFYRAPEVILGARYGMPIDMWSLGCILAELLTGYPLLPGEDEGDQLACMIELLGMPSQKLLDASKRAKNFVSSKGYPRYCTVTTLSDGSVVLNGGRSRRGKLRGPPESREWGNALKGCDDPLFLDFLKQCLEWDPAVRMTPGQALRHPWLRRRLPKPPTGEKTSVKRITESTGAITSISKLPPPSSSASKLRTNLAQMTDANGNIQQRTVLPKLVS
The test can be described thus: Selectivity interaction (Kinase panel (DSF assay)) EUB0001559a DYRK2. (In DSF a fluorescence change marks the thermal transition of the protein.)

Chain of Phosphatidylinositol 4-phosphate 3-kinase C2 domain-containing subunit alpha (Homo sapiens) (O00443 whole entry, the tested form may be a part): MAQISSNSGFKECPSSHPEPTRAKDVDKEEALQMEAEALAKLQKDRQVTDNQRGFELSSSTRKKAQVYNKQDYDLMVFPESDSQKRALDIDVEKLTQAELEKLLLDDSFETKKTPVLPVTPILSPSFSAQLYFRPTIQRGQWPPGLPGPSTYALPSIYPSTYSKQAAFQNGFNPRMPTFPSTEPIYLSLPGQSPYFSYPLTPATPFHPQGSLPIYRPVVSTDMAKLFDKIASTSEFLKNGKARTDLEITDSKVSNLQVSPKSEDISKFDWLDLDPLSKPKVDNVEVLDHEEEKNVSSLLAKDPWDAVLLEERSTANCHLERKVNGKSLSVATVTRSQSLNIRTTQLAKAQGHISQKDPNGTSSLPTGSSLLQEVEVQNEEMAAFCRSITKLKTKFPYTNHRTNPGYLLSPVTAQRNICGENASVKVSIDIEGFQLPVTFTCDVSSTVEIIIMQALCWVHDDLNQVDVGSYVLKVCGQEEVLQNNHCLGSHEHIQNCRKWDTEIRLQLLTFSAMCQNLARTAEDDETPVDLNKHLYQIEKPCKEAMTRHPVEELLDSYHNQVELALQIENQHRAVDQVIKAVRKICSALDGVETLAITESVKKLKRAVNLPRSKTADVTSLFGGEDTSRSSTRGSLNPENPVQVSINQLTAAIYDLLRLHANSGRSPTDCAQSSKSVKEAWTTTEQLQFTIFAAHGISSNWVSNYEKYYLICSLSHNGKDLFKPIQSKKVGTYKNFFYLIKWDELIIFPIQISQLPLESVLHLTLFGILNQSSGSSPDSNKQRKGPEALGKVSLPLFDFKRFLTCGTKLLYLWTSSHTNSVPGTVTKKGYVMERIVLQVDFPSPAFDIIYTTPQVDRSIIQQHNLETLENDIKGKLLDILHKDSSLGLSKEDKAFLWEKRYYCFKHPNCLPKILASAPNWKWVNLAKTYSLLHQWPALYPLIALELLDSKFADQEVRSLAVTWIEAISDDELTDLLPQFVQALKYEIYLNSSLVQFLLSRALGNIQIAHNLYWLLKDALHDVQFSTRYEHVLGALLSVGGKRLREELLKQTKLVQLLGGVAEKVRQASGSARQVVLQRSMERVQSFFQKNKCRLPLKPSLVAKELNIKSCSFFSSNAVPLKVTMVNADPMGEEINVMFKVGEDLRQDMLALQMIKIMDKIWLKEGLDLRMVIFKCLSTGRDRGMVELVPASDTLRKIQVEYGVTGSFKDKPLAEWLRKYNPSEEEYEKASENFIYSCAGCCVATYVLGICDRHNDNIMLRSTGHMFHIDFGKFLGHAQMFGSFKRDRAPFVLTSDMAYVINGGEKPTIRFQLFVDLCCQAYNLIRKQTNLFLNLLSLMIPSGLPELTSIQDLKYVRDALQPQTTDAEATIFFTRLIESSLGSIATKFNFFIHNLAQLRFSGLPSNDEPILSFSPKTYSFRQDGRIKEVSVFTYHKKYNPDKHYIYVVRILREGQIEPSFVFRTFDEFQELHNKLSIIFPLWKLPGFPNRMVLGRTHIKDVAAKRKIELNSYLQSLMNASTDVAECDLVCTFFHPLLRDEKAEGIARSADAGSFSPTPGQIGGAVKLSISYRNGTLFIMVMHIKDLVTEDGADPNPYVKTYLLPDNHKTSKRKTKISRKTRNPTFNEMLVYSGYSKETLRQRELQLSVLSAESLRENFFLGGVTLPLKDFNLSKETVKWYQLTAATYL

In test [1], `Cn1cc(-n2cnc3c(NCc4nc5cc(Cl)c(Cl)cc5[nH]4)nc(N4CCOCC4)nc32)cn1` registered a % of inhibition of 5.89%.

The compound `C=CC(=O)Nc1ccc(C(=O)Nc2[nH]nc3c2CN(C(=O)N[C@H](CN(C)C)c2ccccc2)C3(C)C)cc1` showed a % of engagement in test [2] of 3.6%.

In the case of `Cc1cc(F)c(C(=O)Nc2cccc(-c3nncn3C(C)C)n2)cc1-n1cnc(C2CC2)c1`, the % of control in test [3] amounted to 84%. In test [4], `CN(C(=O)c1cnn2cccnc12)c1cc2c(cc1N1CCOCC1)C(=O)N(C[C@@H](F)C(C)(C)O)C2` returned a dTM of -0.4 K.
